Measured values from PubChem BioAssay (NCI).
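Results reflect a 48-hour exposure of cells in 96-well plates to compound at five concentrations. The concentration for 50% growth inhibition is given as GI50. Definition used: TGI = concentration required for complete inhibition of growth.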

How the values were obtained:
Experiment in all cases: growth of human tumour cells (NCI), 48 h
[1] = tested on: RPMI-8226 leukemia
[2] = tested on: SF-539 CNS
[3] = tested on: SK-MEL-28 melanoma
[4] = tested on: NCI-H522 lung
[5] = tested on: M14 melanoma
[6] = tested on: HCC-2998 colon
[7] = tested on: SK-MEL-2 melanoma
[8] = tested on: NCI-H226 lung
[9] = tested on: TK-10 renal
[10] = tested on: PC-3 prostate

Structure (SMILES)	TGI [1]	TGI [2]	TGI [3]	TGI [4]	TGI [5]	TGI [6]	TGI [7]	TGI [8]	TGI [9]	GI50 [1]	GI50 [2]	GI50 [3]	GI50 [4]	GI50 [5]	GI50 [6]	GI50 [10]	TGI [10]	GI50 [8]	GI50 [9]	GI50 [7]
C#CC1(O)CCC2[C@@H]3CCc4cc(Oc5nc(F)nc(-c6c7ccccc7cn6C)n5)ccc4C3CC[C@@]21C (stereo not given in full)	> 70.7 µM	> 100 µM	> 100 µM	> 100 µM	> 100 µM	> 100 µM	> 100 µM	> 100 µM	> 100 µM	–	–	–	–	–	–	–	–	–	–	–
Cc1ccc(C)c(NC(=O)CC2SC(=Nc3ccccc3Cl)NC2=O)c1 (stereo not given)	–	> 100 µM	> 100 µM	96.5 µM	> 100 µM	> 100 µM	> 100 µM	> 100 µM	> 100 µM	–	–	–	–	–	–	–	–	–	–	–
O=c1[nH]c(=O)n(C2OC(CO)C(O)C2O)cc1OCC(F)(F)F (stereo not given)	> 100 µM	> 100 µM	> 100 µM	> 100 µM	> 100 µM	> 100 µM	> 100 µM	> 100 µM	> 100 µM	–	–	–	–	–	–	–	–	–	–	–
C#COc1cccc(Nc2ncnc3cc(NC(=O)[C@H](C)Cl)ccc23)c1	> 62.5 µM	> 62.5 µM	> 62.5 µM	8.29 µM	> 62.5 µM	> 62.5 µM	–	> 62.5 µM	> 62.5 µM	3.52 µM	2.85 µM	4.71 µM	1.67 µM	2.27 µM	5.71 µM	3.23 µM	> 62.5 µM	24.6 µM	23.6 µM	–
CC(=O)N(O)Cc1ccccc1	> 100 µM	> 100 µM	> 100 µM	> 100 µM	> 100 µM	> 100 µM	–	> 100 µM	> 100 µM	–	–	–	–	–	–	–	–	–	–	–
c1ccc(P(=C2c3ccccc3-c3ccccc32)(c2ccccc2)c2ccccc2)cc1	–	36.7 µM	20.2 µM	4.62 µM	32.6 µM	15.3 µM	23.5 µM	–	52.2 µM	–	–	–	–	–	–	–	–	–	–	–
CCOc1ccc(O)cc1[P+](c1ccccc1)(c1ccccc1)c1ccccc1	26.5 µM	17.8 µM	22.6 µM	6.39 µM	16.7 µM	13.4 µM	–	14.5 µM	12.9 µM	–	–	–	–	–	–	–	–	–	–	–
Cc1ccc(NC(=O)/C(=N/N(C)C)C(C2OC(=O)c3ccccc32)[N+](=O)[O-])cc1 (stereo not given)	> 100 µM	> 100 µM	> 100 µM	–	> 100 µM	> 100 µM	> 100 µM	> 100 µM	> 100 µM	–	–	–	–	–	–	–	> 100 µM	–	–	–
O=c1[nH]c(=O)n(C2CC(O)C(CO)O2)cc1C#Cc1ccc(F)cc1 (stereo not given)	> 100 µM	> 100 µM	> 100 µM	> 100 µM	> 100 µM	> 100 µM	> 100 µM	> 100 µM	–	–	–	–	–	–	–	–	–	–	–	–
COc1cc2c(cc1C1=NC(C)(C)CO1)OCO2	> 100 µM	> 100 µM	> 100 µM	> 100 µM	> 100 µM	–	> 100 µM	> 100 µM	> 100 µM	–	–	–	–	–	–	–	–	–	–	–
CCN(CC)CCn1[nH]c2c3ccc(=O)cc3sc3c(NCCN)ccc1c32	1.97 µM	1.72 µM	3.28 µM	–	–	–	2.69 µM	–	11.3 µM	–	–	–	–	–	–	–	–	–	–	–
COC1OC(C)C2OC(C)(C)OC2C1OC(C)=O (stereo not given)	> 100 µM	> 100 µM	> 100 µM	> 100 µM	> 100 µM	> 100 µM	–	> 100 µM	> 100 µM	–	–	–	–	–	–	–	–	–	–	–
CC12CCC3c4cc(Br)c(O)c(Br)c4CCC3C1CCC2O (stereo not given)	–	36.3 µM	34.9 µM	–	> 100 µM	25.3 µM	59.4 µM	34.5 µM	43.1 µM	–	–	–	–	–	–	–	> 100 µM	–	–	–
CCOC(=O)C(CNc1ccc(O)cc1)NC(=O)c1ccccc1 (stereo not given)	> 100 µM	> 100 µM	> 100 µM	> 100 µM	> 100 µM	> 100 µM	> 100 µM	> 100 µM	> 100 µM	–	–	–	–	–	–	–	–	–	–	–
C#CCN(C(=O)C(F)(F)F)c1ccc(C(=O)c2ccc(N(CC#C)C(=O)C(F)(F)F)cc2)cc1	51.2 µM	> 100 µM	> 100 µM	49.4 µM	> 100 µM	> 100 µM	87.9 µM	–	> 100 µM	–	–	–	–	–	–	–	–	–	–	–
CN(/N=C/c1cccc2cccnc12)c1c([N+](=O)[O-])cc([N+](=O)[O-])cc1[N+](=O)[O-]	> 100 µM	> 100 µM	> 100 µM	–	> 100 µM	> 100 µM	> 100 µM	> 100 µM	> 100 µM	–	–	–	–	–	–	–	–	–	–	–
CCCCCCCC(=O)OCC(=O)[C@]1(O)Cc2c(O)c3c(c(O)c2[C@@H](OC2CC(N)C(O)C(C)O2)C1)C(=O)c1c(OC)cccc1C3=O (stereo not given in full)	–	1 µM	0.902 µM	–	0.634 µM	0.767 µM	–	–	2 µM	–	0.166 µM	0.199 µM	–	0.0866 µM	0.137 µM	–	–	–	0.265 µM	–

Structure (SMILES)	TGI [1]	TGI [2]	TGI [3]	TGI [4]	TGI [5]	TGI [6]	TGI [7]	TGI [8]	TGI [9]	GI50 [1]	GI50 [2]	GI50 [3]	GI50 [4]	GI50 [5]	GI50 [6]	GI50 [10]	TGI [10]	GI50 [8]	GI50 [9]	GI50 [7]
O=C(N/N=C/c1cc(Cl)cc(Cl)c1[O-])c1ccccc1.O=C(N/N=C/c1cc(Cl)cc(Cl)c1[O-])c1ccccc1.[Co+2]	> 100 µM	93 µM	–	–	78.3 µM	> 100 µM	> 100 µM	92.2 µM	> 100 µM	13.4 µM	20.5 µM	–	–	17.8 µM	40.7 µM	–	–	26.5 µM	41 µM	26.5 µM
NCCCCCCNCc1cccc2ccccc12	> 100 µM	> 100 µM	> 100 µM	> 100 µM	34.3 µM	–	> 100 µM	> 100 µM	> 100 µM	–	–	–	–	–	–	–	–	–	–	–
O=C(C/C(CCC(=O)N(Cc1ccccc1)Cc1ccccc1)=N/Nc1ccc([N+](=O)[O-])cc1[N+](=O)[O-])c1ccccc1	> 100 µM	> 100 µM	> 100 µM	> 100 µM	> 100 µM	> 100 µM	> 100 µM	> 100 µM	> 100 µM	–	–	–	–	–	–	–	–	–	–	–
Cc1nc2sccn2c1C(=O)NC(=O)Nc1ccc(Cl)cc1	> 100 µM	> 100 µM	> 100 µM	> 100 µM	> 100 µM	> 100 µM	> 100 µM	> 100 µM	> 100 µM	–	–	–	–	–	–	–	–	–	–	–
O=C(CCc1nnc2s/c(=C\c3ccccc3Cl)c(=O)n12)Nc1cc(Cl)ccc1Cl	> 100 µM	> 100 µM	> 100 µM	> 100 µM	> 100 µM	> 100 µM	> 100 µM	> 100 µM	> 100 µM	–	–	–	–	–	–	–	–	–	–	–
S=C=NCCc1ccccc1	2.04 µM	0.532 µM	2.27 µM	0.58 µM	1.94 µM	1.54 µM	0.928 µM	2.88 µM	3.34 µM	–	–	–	–	–	–	–	–	–	–	–
CN(C)CCNC(=O)c1cccc2ccc(-c3ccc(-c4ccccc4)cc3)nc12	–	3.31 µM	3.29 µM	4.33 µM	3.48 µM	3.3 µM	32.7 µM	30.1 µM	9.43 µM	–	–	–	–	–	–	–	–	–	–	–
CCCCCCCCCCCCCC(=O)CSCCNC(=O)CCNC(=O)[C@@H](O)C(C)(C)COP(=O)(O)OP(=O)(O)OCC1OC(n2cnc3c(N)ncnc32)C(O)C1OP(=O)(O)O (stereo not given in full)	–	29.8 µM	34.3 µM	25.5 µM	32 µM	35.7 µM	33.5 µM	35.7 µM	> 100 µM	–	–	–	–	–	–	–	–	–	–	–
Cn1c(=S)c2[nH]c(SCCN3C(=O)c4ccccc4C3=O)nc2n(C)c1=O	> 100 µM	> 100 µM	> 100 µM	> 100 µM	> 100 µM	–	> 100 µM	> 100 µM	> 100 µM	–	–	–	–	–	–	–	> 100 µM	–	–	–
CCOC(=O)/C(=C/c1ccc(N(CCC#N)CCC#N)cc1C)NC(=O)/C=C/c1ccccc1	> 100 µM	> 100 µM	> 100 µM	> 100 µM	> 100 µM	> 100 µM	> 100 µM	> 100 µM	> 100 µM	–	–	–	–	–	–	–	–	–	–	–
NNC(=O)c1ccc(OCc2nc3ccccc3[nH]2)cc1	> 100 µM	> 100 µM	> 100 µM	> 100 µM	> 100 µM	–	> 100 µM	> 100 µM	> 100 µM	–	–	–	–	–	–	–	> 100 µM	–	–	–
Cn1c(=O)c2[nH]cnc2n(CC(N)=O)c1=O	> 100 µM	> 100 µM	> 100 µM	> 100 µM	> 100 µM	–	> 100 µM	–	> 100 µM	–	–	–	–	–	–	–	–	–	–	–
CC(=O)NNc1nc(C)c(C(=O)NNC(=O)C(=O)Nc2ccc([N+](=O)[O-])cc2C#N)s1	> 100 µM	> 100 µM	> 100 µM	> 100 µM	> 100 µM	> 100 µM	> 100 µM	> 100 µM	> 100 µM	–	–	–	–	–	–	–	–	–	–	–
CC(C)(C)OC(=O)c1cccnc1/C=N/O	–	> 100 µM	> 100 µM	> 100 µM	> 100 µM	–	> 100 µM	> 100 µM	> 100 µM	–	–	–	–	–	–	–	–	–	–	–
CCOC(=O)C1([Se]c2ccccc2)CCCC1=O (stereo not given)	55.4 µM	43.6 µM	41.9 µM	15.5 µM	47.2 µM	> 100 µM	> 100 µM	74.8 µM	> 100 µM	–	–	–	–	–	–	–	–	–	–	–
COC1C2c3cc4c(cc3CC(C#N)(c3ccccc32)N1C(=O)c1ccccc1)OCO4 (stereo not given)	> 100 µM	> 100 µM	> 100 µM	> 100 µM	> 100 µM	> 100 µM	> 100 µM	> 100 µM	> 100 µM	–	–	–	–	–	–	–	–	–	–	–
